Results taken from the supplement of paper PMC10307832.

Legend:
Assay in all cases: relative viability (nuclei count vs DMSO), 5 days (fraction); higher = more cells survive
[1] = compound: N=C1NC(=O)/C(=C/c2ccc(O)cc2)S1 [Mirin] + O=C(CCCCCCC(=O)Nc1ccccc1)NO [Vorinostat] (partner 1 µM)
Method in brief: (§1)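 Cells from lung cancer lines were seeded into 1536-well plates and, one day later, dosed by pin tool. Treatments were either a single drug or a fixed dose of an anchor drug with five library-drug doses (not always all listed) in √10 steps. After 5 days, nuclei were stained in a one-step fixation (final 0.05% Triton X-100, 1% formaldehyde, 1 ug/ml Hoechst) and counted on 4× images, and relative viability is the treated-to-vehicle nuclei ratio, as the median of duplicate plates.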

[2] = compound: CCn1c(-c2nonc2N)nc2cnc(Oc3cccc(NC(=O)c4ccc(OCCN5CCOCC5)cc4)c3)cc21 + CC(=O)c1c(C)c2cnc(Nc3ccc(N4CCNCC4)cn3)nc2n(C2CCCC2)c1=O [Palbociclib] (partner 0.5 µM)
Method in brief: as §1

[3] = compound: CCC1=CN=CN=C1N2CCN(CC2)CC3=NC4=C(N3)C=C(C=C4)C(F)(F)F + C[C@@H](Oc1cc(-c2cnn(C3CCNCC3)c2)cnc1N)c1c(Cl)ccc(F)c1Cl [Crizotinib] (partner 1 µM)
Method in brief: as §1

Row | Cell Line | relative viability ([1]; first compound 0.25 µM) | relative viability ([1]; first compound 0.7906 µM) | relative viability ([1]; first compound 2.5 µM) | relative viability ([1]; first compound 7.906 µM) | relative viability ([1]; first compound 25 µM) | relative viability ([2]; first compound 0.04 µM) | relative viability ([2]; first compound 0.1265 µM) | relative viability ([2]; first compound 0.4 µM) | relative viability ([2]; first compound 1.265 µM) | relative viability ([2]; first compound 4 µM) | relative viability ([3]; first compound 0.04 µM) | relative viability ([3]; first compound 0.1265 µM) | relative viability ([3]; first compound 0.4 µM) | relative viability ([3]; first compound 1.265 µM) | relative viability ([3]; first compound 4 µM)
1 | NCI-H838 | 0.773 | 0.751 | 0.765 | 0.802 | 0.82 | 0.19 | 0.175 | 0.147 | 0.157 | 0.179 | 0.917 | 0.845 | 0.908 | 0.947 | 1.27
2 | HARA | 0.537 | 0.533 | 0.567 | 0.597 | 0.502 | 0.278 | 0.232 | 0.242 | 0.172 | 0.199 | 1.06 | 0.972 | 1.01 | 1.03 | 1.18
3 | NCI-H23 | 0.624 | – | 0.565 | 0.54 | 0.601 | 0.708 | 0.521 | 0.547 | 0.394 | 0.353 | 0.591 | 0.559 | 0.574 | 0.689 | 0.989
4 | LCLC-97TM1 | 0.887 | 0.204 | 0.743 | 0.697 | 0.679 | 0.276 | 0.245 | – | 0.27 | 0.281 | 0.389 | 0.354 | 0.387 | 0.413 | 0.502
5 | LC-2-ad | 0.641 | 0.7 | 0.713 | 0.624 | 0.679 | 0.563 | 0.469 | 0.455 | 0.355 | 0.307 | 0.501 | 0.431 | 0.503 | 0.749 | 0.852
6 | SW 1573 | 0.867 | 0.772 | 0.765 | 0.308 | 0.56 | 0.454 | 0.355 | 0.349 | 0.206 | 0.211 | 0.81 | 0.833 | 0.968 | 0.834 | 0.922
7 | EKVX | 0.784 | – | 0.785 | 0.935 | 0.799 | 0.566 | 0.368 | 0.365 | 0.348 | 0.329 | 1.22 | 0.728 | 0.915 | 0.873 | 1.07
8 | NCI-H2087 | 0.661 | 0.748 | 0.729 | 0.573 | 0.774 | 0.362 | 0.218 | 0.336 | 0.2 | 0.228 | 0.897 | 0.898 | 0.921 | 0.809 | 0.846
9 | HCC-827 | 0.184 | 0.863 | 0.937 | 0.828 | 0.987 | 0.49 | 0.541 | 0.501 | 0.455 | 0.481 | 0.89 | 0.903 | 0.945 | 0.973 | 0.917
10 | NCI-H661 | 0.789 | 0.839 | 0.74 | 0.776 | 0.77 | 0.363 | 0.395 | 0.366 | 0.365 | 0.303 | 0.996 | 0.943 | 0.964 | 0.951 | 1.1
11 | CAL-12T | 0.622 | 0.868 | 0.886 | 0.828 | 0.697 | 0.778 | 0.619 | 0.47 | 0.345 | 0.298 | 0.629 | 0.621 | 0.805 | 0.808 | 1.12
12 | NCI-H2342 | 0.852 | 0.817 | 0.845 | – | 0.757 | 0.467 | 0.52 | 0.554 | 0.52 | 0.553 | – | – | – | – | –
13 | SW 900 | 0.608 | 0.482 | 0.423 | 0.583 | 0.401 | 0.54 | 0.517 | 0.572 | 0.521 | 0.574 | – | – | – | – | –
14 | IA-LM | 0.975 | 1.01 | 1.01 | – | 1.17 | – | – | – | – | – | 0.907 | 0.763 | 0.94 | 0.669 | 0.759
15 | EPLC-272H | 0.415 | 0.549 | 0.487 | 0.349 | 0.192 | 0.391 | 0.406 | 0.302 | 0.316 | 0.296 | 0.81 | 0.867 | 0.89 | 0.959 | 1.19
16 | A-427 | 0.84 | 0.922 | 0.904 | 0.878 | 0.956 | 0.46 | 0.495 | 0.412 | 0.283 | 0.275 | 0.918 | 0.825 | 1.04 | 0.714 | 0.865
17 | NCI-H650 | 0.484 | 0.338 | 0.414 | 0.389 | 0.448 | 0.349 | 0.297 | 0.255 | 0.201 | 0.184 | 0.741 | 0.724 | 0.765 | 0.757 | 1.1
18 | NCI-H1975 | 0.696 | 0.777 | 0.718 | 0.703 | 0.733 | 0.476 | 0.446 | 0.273 | 0.23 | 0.474 | 1.08 | 0.983 | 0.968 | 1.11 | 1.04
19 | NCI-H358 | 0.698 | 0.729 | 0.698 | 0.737 | 0.453 | 0.162 | 0.167 | 0.134 | 0.145 | 0.135 | 0.581 | 0.73 | 0.92 | 1.15 | 1.68
20 | RERF-LC-KJ | 0.565 | 0.816 | 0.686 | 0.709 | 0.664 | 1.1 | 1.08 | 0.969 | 0.655 | 0.678 | 0.761 | 0.729 | 0.881 | 0.913 | 0.982
21 | NCI-H1792 | – | – | – | – | – | 0.694 | 0.583 | – | 0.542 | 0.582 | 0.881 | 0.875 | 0.94 | 0.958 | 1.01
22 | NCI-H647 | 0.4 | 0.536 | 0.586 | 0.623 | 0.48 | 0.494 | 0.297 | 0.317 | 0.235 | 0.297 | 1.12 | 1.13 | – | 1.04 | 1.19
23 | SK-LU-1 | 0.771 | 0.823 | 0.815 | 0.599 | 0.6 | 0.434 | 0.368 | 0.337 | 0.275 | 0.295 | 1 | 1.1 | 0.99 | 1.06 | 1.02
